Peptide text beside a SMILES is read from it. * marks the point of attachment. X84 = O=C1C=CC(=O)N1c1ccccc1CCCCCCCCCCCCC(=O)*; X72 = O=C1C=CC(=O)N1c1ccccc1CCCCCCCCCCC(=O)*; X55 = O=C1C=CC(=O)N1c1ccccc1CCCCCCCCC(=O)*; X63 = O=C1C=CC(=O)N1c1ccccc1CCCCCCC(=O)*
Key:
[1] = system: IL-1β production by mouse peritoneal macrophages; experiment: IL-1β production by mouse peritoneal macrophages (ELISA); assay type: cell-based; conditions: for Inhibition rate: IL-1β production, vs model group; for IL-1β: mouse peritoneal macrophages, 48 h, ELISA
Summary of the method: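 Starch-elicited (6%, i.p.) mouse peritoneal macrophages, 2×10^6 cells/mL in RPMI 1640, adhered 3 h; non-adherent cells washed off. Polypeptides added at low, medium and high concentrations, Dex as positive control; cultured 48 h, supernatant IL-1β measured.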

[2] = system: retinal vascular endothelial nuclei; experiment: Neovascularization in a rat model of premature retinopathy; assay type: in vivo, rats; conditions: dose 0.05 μM in the vitreous chamber from day 7 of modeling for one week; counted on day 14; oxygen-induced neonatal rats
Procedure: Using a fluctuating oxygen-induced animal model, newborn rats born naturally on the same day (within 12 h) were randomly divide into three groups: an oxygen model group, an oxygen treatment group and a normal control group. The oxygen model was further divided into three sub-group model groups, and the sub-group model groups and the treatment group were all placed in a semi-closed oxygen chamber made of organic glass; medical oxygen was introduced into the chamber, and the concentration was adjusted to 80%±2% by an oxygen meter; nitrogen was introduced into the oxygen chamber after 24 h, and the oxygen concentration was adjusted to 10%±2% rapidly and maintained for 24 h. This was repeated to keep the oxygen concentration in the oxygen chamber alternating between 80% and 10% every 24 h, the oxygen concentration was maintained for 7 d, and then the rats were fed in the air. The oxygen concentration was monitored 8 times a day, and the ambient temperature in the chamber was controlled at 23° C.±2° C. Bedding was replaced, feed was added, and water and mother rats were replaced once. The normal control group was placed in the animal room feeding environment. […] The oxygen treatment group was divided into three subgroups. On day 7 of modeling, X1-[…], […]-[…] and […]-X90 were injected in the vitreous chamber respectively, and the oxygen model group and the control group were only given normal saline for one week. On day 14, after the rats were anesthetized by diethyl ether and killed, eyeballs were extracted and fixed in 40 g/L paraformaldehyde solution for 24 h. Gradient dehydration by alcohol was performed, and the eyeballs were processed by xylene to be transparent. After waxing, the eyeballs were sectioned continuously to a thickness of 4μm, and the periphery of the optic disc should be avoided as much as possible. The sections were parallel to the sagittal plane from cornea to the optic disc. Ten sections of each eyeball were randomly taken and stained with hematoxylin eosin, the number of vascular endothelial nuclei that broke through the inner limiting membrane of the retina (only the number of vascular endothelial nuclei closely related to the inner limiting membrane were counted) was counted, and statistics of the average number of cells per section per eyeball was performed. Results: In the control group, there were no vascular endothelial nuclei that broke through the inner limiting membrane of the retina and grew into vitreous body, or the vascular endothelial nuclei were occasionally found in only a few sections. In the model group, there were many vascular endothelial nuclei that broke through the inner limiting membrane of the retina, some appeared alone, and some appeared in clusters. At the same time, on some sections, these vascular endothelial nuclei were also found adjacent to deep retinal vessels, confirming that they originated from the retina rather than the vitreous body or other ocular tissues. In the treatment group, only a few vascular endothelial nuclei that broke through the inner limiting membrane of retina could be seen in the sections.

splenic lymphocytes = experiment: Proliferation of splenic lymphocytes in mice (ConA, MTT); assay type: cell-based; conditions: ConA-stimulated mouse splenic lymphocytes, 48 h
Summary of the method: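 Mouse splenocytes (5×10^6 cells/mL, RPMI 1640 with 10% calf serum, red cells lysed) stimulated with ConA plus varying polypeptide concentrations, with blank, ConA-only and Dex groups, 48 h at 37° C. MTT added for 4 h, formazan dissolved in DMSO, OD read at 570 nm; five replicates.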

[3] = system: carrageenan-induced toe swelling; experiment: Carrageenan-induced toe swelling in rats; assay type: in vivo; conditions: SD rats; for Swelling degree 1 h: 1 h after carrageenan; for Swelling degree 3 h: 3 h after carrageenan; for Swelling degree 5 h: 5 h after carrageenan; for Swelling degree 7 h: 7 h after carrageenan
Summary of the method: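 Rats dosed by injection once daily for 3 d, controls given equal-volume saline. Right hind paw volume measured by water displacement to a marked joint line; swelling degree (mL) is paw volume after carrageenan inflammation minus volume before.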

adjuvant arthritis = experiment: Rat adjuvant arthritis (AA) animal model; assay type: in vivo, SD rats; conditions: 4.0 mg/kg; for Clinical score: intravenous in the tail once every five days from day 10, four paws scored 0-4, max 16, mean±SD; for Joint swelling degree / Left and right paw swelling degree: intravenous in the tail once every five days from day 10, mean±SD

SMILES	Inhibition rate ([1]; dose 0.05 μM) [%]	IL-1β ([1]; dose 0.05 μM) [pg/mL]	Inhibition rate ([1]; dose 0.1 μM) [%]	IL-1β ([1]; dose 0.1 μM) [pg/mL]	Inhibition rate ([1]; dose 0.2 μM) [%]	IL-1β ([1]; dose 0.2 μM) [pg/mL]	Nuclei count (retinal vascular endothelial nuclei, average per section per eyeball) [2]	A570 nm/A630 nm (splenic lymphocytes; polypeptide dose 0.05 μM)	Inhibition rate (%) (splenic lymphocytes; polypeptide dose 0.05 μM)	A570 nm/A630 nm (splenic lymphocytes; polypeptide dose 0.1 μM)	Inhibition rate (%) (splenic lymphocytes; polypeptide dose 0.1 μM)	A570 nm/A630 nm (splenic lymphocytes; polypeptide dose 0.2 μM)	Inhibition rate (%) (splenic lymphocytes; polypeptide dose 0.2 μM)	Swelling degree 1 h ([3]; 2.0 mg/kg once a day for 3 d) [mg]	Swelling degree 3 h ([3]; 2.0 mg/kg once a day for 3 d) [mg]	Swelling degree 5 h ([3]; 2.0 mg/kg once a day for 3 d) [mg]	Swelling degree 7 h ([3]; 2.0 mg/kg once a day for 3 d) [mg]	Swelling degree 1 h ([3]; 4.0 mg/kg once a day for 3 d) [mg]	Swelling degree 3 h ([3]; 4.0 mg/kg once a day for 3 d) [mg]	Swelling degree 5 h ([3]; 4.0 mg/kg once a day for 3 d) [mg]	further results
C[C@H](NC(=O)CNC(=O)[C@H](CCCNC(=N)N)NC(=O)CCCCCCc1ccccc1N1C(=O)C=CC1=O)C(=O)N[C@@H](CC(=O)O)C(=O)N[C@@H](CCCNC(=N)N)C(=O)N[C@@H](C)C(=O)NCC(=O)NCC(=O)NCC(=O)NCC(=O)N[C@@H](CCCNC(=N)N)C(=O)NCC(=O)N[C@@H](CC(=O)O)C(=O)O [X18] (X63-RGADRAGGGGRGD-OH)	23.36	721.31 ± 12.75	23.86	716.58 ± 16.56	27.40	683.26 ± 19.63	8.002 ± 3.606	0.6041 ± 0.0524	10.56	0.5571 ± 0.0554	17.52	0.4402 ± 0.0534	34.82	0.23 ± 0.18	0.33 ± 0.16	0.36 ± 0.15	0.32 ± 0.13	0.24 ± 0.17	0.39 ± 0.18	0.45 ± 0.15	Swelling degree 7 h ([3]; 4.0 mg/kg once a day for 3 d): 0.33 ± 0.12 mg; Clinical score (adjuvant arthritis): 5.67 ± 1.04; Joint swelling degree (adjuvant arthritis): 0.83 ± 0.15 mm; Left and right paw swelling degree (adjuvant arthritis): 3.81 ± 0.85 mm
C[C@H](NC(=O)CNC(=O)[C@H](CCCNC(=N)N)NC(=O)CCCCCCCCc1ccccc1N1C(=O)C=CC1=O)C(=O)N[C@@H](CC(=O)O)C(=O)N[C@@H](CCCNC(=N)N)C(=O)N[C@@H](C)C(=O)NCC(=O)NCC(=O)NCC(=O)NCC(=O)N[C@@H](CCCNC(=N)N)C(=O)NCC(=O)N[C@@H](CC(=O)O)C(=O)O [X20] (X55-RGADRAGGGGRGD-OH)	17.90	772.72 ± 18.78	23.02	724.50 ± 12.58	32.89	631.59 ± 19.52	9.374 ± 3.742	0.5977 ± 0.1129	11.50	0.5419 ± 0.0423	19.77	0.4947 ± 0.1213	26.75	0.25 ± 0.18	0.34 ± 0.13	0.36 ± 0.13	0.37 ± 0.12	0.24 ± 0.15	0.34 ± 0.12	0.35 ± 0.16	Swelling degree 7 h ([3]; 4.0 mg/kg once a day for 3 d): 0.35 ± 0.12 mg; Clinical score (adjuvant arthritis): 5.74 ± 1.11; Joint swelling degree (adjuvant arthritis): 0.8 ± 0.17 mm; Left and right paw swelling degree (adjuvant arthritis): 3.87 ± 0.95 mm
C[C@H](NC(=O)CNC(=O)[C@H](CCCNC(=N)N)NC(=O)CCCCCCCCCCc1ccccc1N1C(=O)C=CC1=O)C(=O)N[C@@H](CC(=O)O)C(=O)N[C@@H](CCCNC(=N)N)C(=O)N[C@@H](C)C(=O)NCC(=O)NCC(=O)NCC(=O)NCC(=O)N[C@@H](CCCNC(=N)N)C(=O)NCC(=O)N[C@@H](CC(=O)O)C(=O)O [X22] (X72-RGADRAGGGGRGD-OH)	29.53	663.21 ± 13.73	32.31	637.07 ± 19.81	38.53	578.51 ± 14.03	7.368 ± 1.842	0.5694 ± 0.0561	15.69	0.4603 ± 0.0873	31.85	0.4521 ± 0.1194	33.06	0.24 ± 0.13	0.31 ± 0.15	0.42 ± 0.14	0.38 ± 0.18	0.23 ± 0.11	0.31 ± 0.16	0.36 ± 0.13	Swelling degree 7 h ([3]; 4.0 mg/kg once a day for 3 d): 0.37 ± 0.13 mg; Clinical score (adjuvant arthritis): 5.67 ± 1.12; Joint swelling degree (adjuvant arthritis): 0.83 ± 0.14 mm; Left and right paw swelling degree (adjuvant arthritis): 3.92 ± 0.18 mm
C[C@H](NC(=O)CNC(=O)[C@H](CCCNC(=N)N)NC(=O)CCCCCCCCCCCCc1ccccc1N1C(=O)C=CC1=O)C(=O)N[C@@H](CC(=O)O)C(=O)N[C@@H](CCCNC(=N)N)C(=O)N[C@@H](C)C(=O)NCC(=O)NCC(=O)NCC(=O)NCC(=O)N[C@@H](CCCNC(=N)N)C(=O)NCC(=O)N[C@@H](CC(=O)O)C(=O)O [X24] (X84-RGADRAGGGGRGD-OH)	29.88	659.97 ± 17.07	31.39	645.67 ± 11.87	41.69	548.82 ± 19.58	7.699 ± 3.108	0.5823 ± 0.0474	14.12	0.5615 ± 0.1155	16.86	0.5142 ± 0.0636	23.87	0.24 ± 0.16	0.34 ± 0.18	0.43 ± 0.12	0.38 ± 0.13	0.23 ± 0.17	0.35 ± 0.13	0.38 ± 0.16	Swelling degree 7 h ([3]; 4.0 mg/kg once a day for 3 d): 0.32 ± 0.12 mg; Clinical score (adjuvant arthritis): 5.73 ± 1.15; Joint swelling degree (adjuvant arthritis): 0.76 ± 0.15 mm; Left and right paw swelling degree (adjuvant arthritis): 3.94 ± 0.70 mm

— US20200270309A1, “MALEIMIDE GROUP-MODIFIED ANGIOGENESIS INHIBITOR HM-1 AND USE THEREOF” (NANJING ANJI BIOLOGICAL TECHNOLOGY CO., LTD, priority 2017, published 2020)
